# Laboratory results published in patent publication US8415469B2, “Compounds and methods for kinase modulation, and indications therefor” (Plexxikon Inc., priority 2005, dated 2013).
# What was measured:
# Assay type in all cases: biochemical
# [1] = target: T1, Fms (Homo sapiens, UniProt P07333); experiment: AlphaScreen kinase assay, Fms; settings: read-out: IC50, activity toward kinase Fms
# T1 construct: purchased Upstate Biotechnology
# [2] = target: T2, B-Raf V600E (Homo sapiens, UniProt P15056, V600E); experiment: AlphaScreen kinase assay, B-Raf V600E; settings: read-out: IC50, activity toward kinase B-Raf V600E
# T2 construct: P4254. pFastBacBD-CDC37 BRAF D437-K722-X, V600E; His6 with pFastBac HT leader (TEV site) (N); made in house; host or cells: Sf9 (baculovirus; chaperone CDC37 co-expressed)
# [3] = target: T3, Src (Homo sapiens, UniProt P12931); experiment: AlphaScreen kinase assay, Src; settings: read-out: IC50, activity toward kinase Src
# T3 construct: P1144. pET-N6 BI-PTP SRC V86-L536-X; made in house
# [4] = target: T4, Kit (Homo sapiens, UniProt P10721); experiment: AlphaScreen kinase assay, Kit; settings: read-out: IC50, activity toward kinase Kit
# T4 construct: P1332.N6 BI PTP KIT M552-K948-X COD; His6 (N); made in house; host or cells: E. coli (PTP1B co-expressed)
# [5] = target: T5, Btk (Homo sapiens, UniProt Q06187); experiment: Z'-Lyte FRET kinase assay (Invitrogen), Btk; settings: read-out: IC50, activity toward kinase Btk
# T5 construct: purchased Invitrogen (assay run by Invitrogen)
# [6] = target: MAP4K4 (Homo sapiens, UniProt O95819); experiment: AlphaScreen kinase assay, MAP4K4; settings: read-out: IC50, activity toward kinase MAP4K4
# [7] = target: T6, FGFR1 (Homo sapiens, UniProt P11362, C488A/C584S); experiment: AlphaScreen kinase assay, FGFR1; settings: read-out: IC50, activity toward kinase FGFR
# T6 construct: P1351.pET N6 BI-PTP FGFR A458-E765-X C488A, C584S; made in house; host or cells: E. coli (PTP1B co-expressed)
# [8] = target: T7, Yes (Homo sapiens, UniProt P07947); experiment: Z'-Lyte FRET kinase assay (Invitrogen), Yes; settings: read-out: IC50, activity toward kinase Yes
# T7 construct: purchased Invitrogen (Carlsbad, Calif.), screening service
# Outline: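 Serially diluted compound (1% DMSO final) is mixed with kinase plus 2 μM peptide substrate in pH 7.5 HEPES buffer, then ATP is added to 10 μM. After 1 h at room temperature, site-specific protease is added for another hour, reactions are stopped and fluorescence ratio measured.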
# [9] = target: T8, Ret (Homo sapiens, UniProt P07949); experiment: AlphaScreen kinase assay, Ret; settings: read-out: IC50, activity toward kinase Ret
# T8 construct: P1378.pET-SF BI-PTP RET H661-R1012 HIS; made in house
# T8 sequence (P07949 with tags, fused parts or gaps): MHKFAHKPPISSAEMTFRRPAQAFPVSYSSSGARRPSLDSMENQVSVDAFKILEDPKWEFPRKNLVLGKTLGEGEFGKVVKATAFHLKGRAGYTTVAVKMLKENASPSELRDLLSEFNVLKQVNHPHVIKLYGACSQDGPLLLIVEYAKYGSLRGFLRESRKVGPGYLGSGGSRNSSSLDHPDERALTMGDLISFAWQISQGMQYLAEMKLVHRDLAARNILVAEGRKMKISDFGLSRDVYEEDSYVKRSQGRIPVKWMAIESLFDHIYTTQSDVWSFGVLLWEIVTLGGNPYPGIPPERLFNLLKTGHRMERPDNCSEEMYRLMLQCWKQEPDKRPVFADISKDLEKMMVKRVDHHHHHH
# [10] = target: T9, MAP2K1 (Homo sapiens, UniProt Q02750); experiment: Z'-Lyte FRET kinase assay (Invitrogen), MAP2K1; settings: read-out: IC50, activity toward kinase MAP2K1
# T9 construct: purchased Invitrogen (assay run by Invitrogen)
# [11] = target: T10, Kdr (Homo sapiens, UniProt P35968); experiment: Z'-Lyte FRET kinase assay (Invitrogen), Kdr; settings: read-out: IC50, activity toward kinase Kdr
# T10 construct: purchased Invitrogen (assay run by Invitrogen)
# [12] = target: T11, Stk6 (Homo sapiens, UniProt O14965); experiment: Z'-Lyte FRET kinase assay (Invitrogen), Stk6; settings: read-out: IC50, activity toward kinase Stk6
# T11 construct: purchased Invitrogen (Carlsbad, Calif.), screening service
# T11 sequence (O14965 1-403): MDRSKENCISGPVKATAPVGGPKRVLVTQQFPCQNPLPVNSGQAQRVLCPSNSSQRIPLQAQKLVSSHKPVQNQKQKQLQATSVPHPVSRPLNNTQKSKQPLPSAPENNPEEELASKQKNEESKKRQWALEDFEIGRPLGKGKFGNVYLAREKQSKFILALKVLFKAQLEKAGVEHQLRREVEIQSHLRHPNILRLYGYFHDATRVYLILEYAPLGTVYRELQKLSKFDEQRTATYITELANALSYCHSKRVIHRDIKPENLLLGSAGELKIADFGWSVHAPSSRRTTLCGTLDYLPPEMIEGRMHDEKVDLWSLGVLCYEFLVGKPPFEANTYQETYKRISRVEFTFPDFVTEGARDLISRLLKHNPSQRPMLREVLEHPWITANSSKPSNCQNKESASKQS
# [13] = target: Gsk3β (Homo sapiens, UniProt P49841); experiment: AlphaScreen kinase assay, Gsk3β; settings: read-out: IC50, activity toward kinase Gsk3β
# Description: AlphaScreen assay was used to screen additional kinases. The assay is similarly dependent on the phosphorylation of a peptide substrate. In this assay, an antibody that recognizes phosphorylated substrate is bound to an acceptor bead. The peptide substrate is attached to biotin, which binds to a donor head that contains streptavidin. Thus phosphorylated substrate is bound by antibody and streptavidin, bringing the donor and acceptor heads into close proximity when kinase is not inhibited. The donor produces singlet oxygen which results in emission from the acceptor when they are in close proximity. Conversely, when kinase is inhibited, the donor and acceptor beads are not associated and the emission from the acceptor is reduced.
# AlphaScreen assays were done using compounds dissolved in DMSO to a concentration of 20 mM. The compounds were diluted accordingly to the desired final concentrations in each sample well, using 1:3 serial dilution for a total of 8 concentration points.
# [14] = target: T12, Jnk3 (Homo sapiens, UniProt P53779); experiment: AlphaScreen kinase assay, Jnk3; settings: read-out: IC50, activity toward kinase Jnk3
# T12 construct: purchased Upstate Biotechnology
# [15] = target: T13, Fak (Homo sapiens, UniProt Q05397); experiment: AlphaScreen kinase assay, Fak; settings: read-out: IC50, activity toward kinase Fak
# T13 construct: P1358.pFastBacHtb FAK S411-Q686-X; His6 with pFastBacHTb leader (TEV site) (N); made in house; host or cells: Sf9 (baculovirus)
# [16] = target: T14, Jnk1 (Homo sapiens, UniProt P45983); experiment: AlphaScreen kinase assay, Jnk1; settings: read-out: IC50, activity toward kinase Jnk1
# T14 construct: purchased Upstate Biotechnology
# [17] = target: T15, Pyk2 (Homo sapiens, UniProt Q14289); experiment: AlphaScreen kinase assay, Pyk2; settings: read-out: IC50, activity toward kinase Pyk2
# T15 construct: purchased Upstate Biotechnology
# [18] = target: T16, c-Raf-1 (Homo sapiens, UniProt P04049); experiment: AlphaScreen kinase assay, c-Raf-1; settings: read-out: IC50, activity toward kinase c-Raf-1
# T16 construct: purchased Upstate Biotechnology
# [19] = target: T17, Flt1 (Homo sapiens, UniProt P17948); experiment: AlphaScreen kinase assay, Flt1; settings: read-out: IC50, activity toward kinase Flt1
# T17 construct: P1826.pETN6 BI-PTP FLT1 M799-D1165-X WT; His6 (N); made in house; host or cells: E. coli (PTP1B co-expressed)
# T17 sequence (P17948 with tags, fused parts or gaps): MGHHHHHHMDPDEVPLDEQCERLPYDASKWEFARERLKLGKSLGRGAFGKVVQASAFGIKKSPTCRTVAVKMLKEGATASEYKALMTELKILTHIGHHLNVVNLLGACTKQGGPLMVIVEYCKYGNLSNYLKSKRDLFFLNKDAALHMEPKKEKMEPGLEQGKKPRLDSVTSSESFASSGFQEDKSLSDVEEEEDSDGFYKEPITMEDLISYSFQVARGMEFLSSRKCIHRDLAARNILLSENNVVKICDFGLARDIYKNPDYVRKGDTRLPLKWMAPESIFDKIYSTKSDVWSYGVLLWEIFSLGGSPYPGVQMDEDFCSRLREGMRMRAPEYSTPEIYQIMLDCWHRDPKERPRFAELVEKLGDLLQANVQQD
# [20] = target: T18, Abl (Homo sapiens, UniProt P00519); experiment: AlphaScreen kinase assay, Abl; settings: read-out: activity toward kinase Abl, IC50
# T18 construct: P1121. pET-SPEC BI-PTP Abl G227-V515-X; His6 (N); made in house; host or cells: E. coli (PTP1B co-expressed)
# T18 sequence (P00519 with tags, fused parts or gaps): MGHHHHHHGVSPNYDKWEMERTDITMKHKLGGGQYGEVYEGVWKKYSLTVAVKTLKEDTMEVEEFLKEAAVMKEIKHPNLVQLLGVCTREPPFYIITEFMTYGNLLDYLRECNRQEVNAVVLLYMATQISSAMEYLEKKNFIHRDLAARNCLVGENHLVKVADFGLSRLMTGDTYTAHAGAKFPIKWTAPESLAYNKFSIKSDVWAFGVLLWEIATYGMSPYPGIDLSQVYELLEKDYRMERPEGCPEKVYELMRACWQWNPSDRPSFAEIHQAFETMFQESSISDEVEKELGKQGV
# Outline: (§1)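 AlphaScreen, biotin-peptide substrate; streptavidin donor/anti-phospho acceptor beads; decreased emission = inhibition. Cpds 20 mM DMSO stock, 1:3 x 8 conc.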
# [21] = target: T19, Flt4 (Homo sapiens, UniProt P35916); experiment: AlphaScreen kinase assay, Flt4; settings: read-out: IC50, activity toward kinase Flt4
# T19 construct: purchased ProQinase GmbH (Freiburg, Germany)
# Outline: as §1
# [22] = target: T20, Met (Homo sapiens, UniProt P08581); experiment: AlphaScreen kinase assay, Met; settings: read-out: IC50, activity toward kinase Met
# T20 construct: P1818.pETN6 BI-PTP MET G1056-G1364-X WT; His6 (N); made in house; host or cells: E. coli (PTP1B co-expressed)
# Outline: as §1
# [23] = target: T21, B-Raf (Homo sapiens, UniProt P15056); experiment: AlphaScreen kinase assay, B-Raf; settings: read-out: IC50, activity toward kinase B-Raf
# T21 construct: purchased Upstate Biotechnology
# T9 sequence (Q02750 whole entry): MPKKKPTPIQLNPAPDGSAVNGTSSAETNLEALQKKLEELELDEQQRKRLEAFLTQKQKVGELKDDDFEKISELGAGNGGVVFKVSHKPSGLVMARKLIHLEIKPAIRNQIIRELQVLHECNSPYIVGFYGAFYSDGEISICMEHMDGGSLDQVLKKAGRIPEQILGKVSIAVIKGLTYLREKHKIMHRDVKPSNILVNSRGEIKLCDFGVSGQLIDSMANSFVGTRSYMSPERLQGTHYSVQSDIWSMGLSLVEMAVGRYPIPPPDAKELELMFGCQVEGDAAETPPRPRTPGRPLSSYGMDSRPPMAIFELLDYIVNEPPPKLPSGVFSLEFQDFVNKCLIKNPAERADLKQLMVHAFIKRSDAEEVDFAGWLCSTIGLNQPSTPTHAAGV
# T2 sequence (P15056 with tags, fused parts or gaps V600E): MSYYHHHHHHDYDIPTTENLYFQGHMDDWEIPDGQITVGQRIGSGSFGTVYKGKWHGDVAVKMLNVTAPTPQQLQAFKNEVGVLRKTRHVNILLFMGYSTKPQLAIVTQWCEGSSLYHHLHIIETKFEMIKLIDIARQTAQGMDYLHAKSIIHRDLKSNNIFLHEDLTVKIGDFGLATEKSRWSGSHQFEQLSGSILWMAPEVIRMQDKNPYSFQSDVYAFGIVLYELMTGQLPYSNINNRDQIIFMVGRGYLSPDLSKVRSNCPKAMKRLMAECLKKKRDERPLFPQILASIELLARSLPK
# Chain of Gsk3β (P49841 whole entry): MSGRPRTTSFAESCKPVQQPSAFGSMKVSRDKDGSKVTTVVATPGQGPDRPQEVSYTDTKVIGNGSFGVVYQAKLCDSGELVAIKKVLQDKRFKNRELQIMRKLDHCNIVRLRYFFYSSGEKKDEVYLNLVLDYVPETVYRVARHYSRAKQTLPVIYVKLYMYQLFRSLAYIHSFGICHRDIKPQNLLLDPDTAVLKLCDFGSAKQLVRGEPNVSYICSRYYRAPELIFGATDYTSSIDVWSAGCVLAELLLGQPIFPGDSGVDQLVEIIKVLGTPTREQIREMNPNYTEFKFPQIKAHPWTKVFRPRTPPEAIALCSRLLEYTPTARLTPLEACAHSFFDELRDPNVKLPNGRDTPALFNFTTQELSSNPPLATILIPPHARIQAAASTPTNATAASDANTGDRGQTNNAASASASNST
# T10 sequence (P35968 20-1356): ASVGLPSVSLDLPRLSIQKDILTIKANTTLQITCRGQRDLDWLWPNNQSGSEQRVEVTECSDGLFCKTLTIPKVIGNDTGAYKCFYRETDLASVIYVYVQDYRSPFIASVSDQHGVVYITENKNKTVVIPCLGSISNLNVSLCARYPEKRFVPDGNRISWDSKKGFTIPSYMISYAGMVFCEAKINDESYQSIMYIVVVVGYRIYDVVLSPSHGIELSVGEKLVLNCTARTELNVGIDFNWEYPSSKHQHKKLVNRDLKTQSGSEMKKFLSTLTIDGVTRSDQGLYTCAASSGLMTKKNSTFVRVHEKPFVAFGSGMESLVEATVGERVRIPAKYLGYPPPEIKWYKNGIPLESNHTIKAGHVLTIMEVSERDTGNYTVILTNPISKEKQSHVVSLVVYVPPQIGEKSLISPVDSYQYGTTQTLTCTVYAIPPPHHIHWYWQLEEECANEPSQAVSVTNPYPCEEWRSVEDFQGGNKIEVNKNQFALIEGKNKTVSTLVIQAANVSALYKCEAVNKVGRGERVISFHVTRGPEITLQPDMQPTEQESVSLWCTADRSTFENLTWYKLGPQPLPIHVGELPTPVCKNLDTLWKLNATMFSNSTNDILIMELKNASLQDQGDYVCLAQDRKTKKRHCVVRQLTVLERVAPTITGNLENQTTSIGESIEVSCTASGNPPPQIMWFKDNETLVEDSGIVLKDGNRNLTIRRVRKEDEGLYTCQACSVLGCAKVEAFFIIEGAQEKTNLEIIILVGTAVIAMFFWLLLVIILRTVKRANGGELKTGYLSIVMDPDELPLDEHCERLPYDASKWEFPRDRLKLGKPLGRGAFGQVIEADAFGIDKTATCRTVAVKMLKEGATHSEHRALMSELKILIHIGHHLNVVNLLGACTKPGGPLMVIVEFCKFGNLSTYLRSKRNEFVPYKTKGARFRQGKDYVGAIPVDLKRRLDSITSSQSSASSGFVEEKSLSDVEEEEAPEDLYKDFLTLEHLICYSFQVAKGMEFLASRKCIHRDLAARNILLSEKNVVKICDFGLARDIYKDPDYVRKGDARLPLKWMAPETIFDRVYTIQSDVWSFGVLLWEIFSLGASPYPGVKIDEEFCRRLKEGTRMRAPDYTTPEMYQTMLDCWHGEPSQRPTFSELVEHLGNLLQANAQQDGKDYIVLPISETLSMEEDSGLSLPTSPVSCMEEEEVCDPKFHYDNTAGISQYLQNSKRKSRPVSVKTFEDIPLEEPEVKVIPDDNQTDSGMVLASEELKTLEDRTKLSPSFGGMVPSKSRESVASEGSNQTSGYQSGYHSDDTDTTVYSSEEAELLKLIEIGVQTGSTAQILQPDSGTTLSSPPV
# T6 sequence (P11362 458-765 C488A/C584S): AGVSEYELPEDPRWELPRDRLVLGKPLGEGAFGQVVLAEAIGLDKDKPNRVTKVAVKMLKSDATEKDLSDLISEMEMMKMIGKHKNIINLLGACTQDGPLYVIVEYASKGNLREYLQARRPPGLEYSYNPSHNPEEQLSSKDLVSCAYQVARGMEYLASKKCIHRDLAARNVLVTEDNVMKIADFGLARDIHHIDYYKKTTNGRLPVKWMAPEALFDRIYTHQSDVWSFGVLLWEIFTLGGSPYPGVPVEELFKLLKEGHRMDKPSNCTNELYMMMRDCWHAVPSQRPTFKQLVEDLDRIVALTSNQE
# T1 sequence (P07333 20-972): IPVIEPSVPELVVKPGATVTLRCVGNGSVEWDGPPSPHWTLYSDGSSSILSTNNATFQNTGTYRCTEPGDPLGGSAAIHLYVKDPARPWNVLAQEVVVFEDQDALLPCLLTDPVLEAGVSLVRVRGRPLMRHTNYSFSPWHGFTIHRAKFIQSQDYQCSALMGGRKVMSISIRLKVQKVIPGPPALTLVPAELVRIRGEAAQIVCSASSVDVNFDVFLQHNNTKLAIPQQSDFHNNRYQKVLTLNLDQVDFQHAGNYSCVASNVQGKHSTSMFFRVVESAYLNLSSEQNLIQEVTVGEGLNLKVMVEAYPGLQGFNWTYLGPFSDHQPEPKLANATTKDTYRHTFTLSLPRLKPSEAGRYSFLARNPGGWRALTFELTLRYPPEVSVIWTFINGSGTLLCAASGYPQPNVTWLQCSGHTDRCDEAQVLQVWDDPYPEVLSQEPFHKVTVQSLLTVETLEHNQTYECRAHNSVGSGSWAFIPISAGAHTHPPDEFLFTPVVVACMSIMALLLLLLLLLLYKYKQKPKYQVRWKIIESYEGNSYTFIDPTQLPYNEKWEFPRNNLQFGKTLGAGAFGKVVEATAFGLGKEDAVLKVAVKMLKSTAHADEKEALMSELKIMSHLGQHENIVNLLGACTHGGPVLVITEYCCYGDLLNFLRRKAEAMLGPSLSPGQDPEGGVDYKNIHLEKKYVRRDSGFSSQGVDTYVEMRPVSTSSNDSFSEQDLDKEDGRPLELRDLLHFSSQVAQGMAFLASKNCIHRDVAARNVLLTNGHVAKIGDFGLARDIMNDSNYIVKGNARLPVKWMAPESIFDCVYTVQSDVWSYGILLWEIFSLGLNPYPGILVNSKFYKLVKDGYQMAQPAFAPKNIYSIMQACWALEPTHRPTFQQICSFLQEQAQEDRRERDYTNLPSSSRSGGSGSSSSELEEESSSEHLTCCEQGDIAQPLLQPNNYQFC
# T4 sequence (P10721 with tags, fused parts or gaps): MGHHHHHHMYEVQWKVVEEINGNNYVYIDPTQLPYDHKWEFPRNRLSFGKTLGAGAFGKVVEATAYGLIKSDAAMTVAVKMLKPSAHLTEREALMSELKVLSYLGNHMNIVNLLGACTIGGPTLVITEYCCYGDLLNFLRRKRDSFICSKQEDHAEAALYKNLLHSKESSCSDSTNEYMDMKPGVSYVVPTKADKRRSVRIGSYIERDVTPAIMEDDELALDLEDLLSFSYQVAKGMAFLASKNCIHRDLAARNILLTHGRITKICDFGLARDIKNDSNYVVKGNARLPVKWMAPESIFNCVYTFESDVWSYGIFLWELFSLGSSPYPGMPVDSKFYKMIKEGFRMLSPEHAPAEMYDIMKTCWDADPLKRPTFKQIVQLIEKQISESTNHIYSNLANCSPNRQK
# T16 sequence (P04049 whole entry): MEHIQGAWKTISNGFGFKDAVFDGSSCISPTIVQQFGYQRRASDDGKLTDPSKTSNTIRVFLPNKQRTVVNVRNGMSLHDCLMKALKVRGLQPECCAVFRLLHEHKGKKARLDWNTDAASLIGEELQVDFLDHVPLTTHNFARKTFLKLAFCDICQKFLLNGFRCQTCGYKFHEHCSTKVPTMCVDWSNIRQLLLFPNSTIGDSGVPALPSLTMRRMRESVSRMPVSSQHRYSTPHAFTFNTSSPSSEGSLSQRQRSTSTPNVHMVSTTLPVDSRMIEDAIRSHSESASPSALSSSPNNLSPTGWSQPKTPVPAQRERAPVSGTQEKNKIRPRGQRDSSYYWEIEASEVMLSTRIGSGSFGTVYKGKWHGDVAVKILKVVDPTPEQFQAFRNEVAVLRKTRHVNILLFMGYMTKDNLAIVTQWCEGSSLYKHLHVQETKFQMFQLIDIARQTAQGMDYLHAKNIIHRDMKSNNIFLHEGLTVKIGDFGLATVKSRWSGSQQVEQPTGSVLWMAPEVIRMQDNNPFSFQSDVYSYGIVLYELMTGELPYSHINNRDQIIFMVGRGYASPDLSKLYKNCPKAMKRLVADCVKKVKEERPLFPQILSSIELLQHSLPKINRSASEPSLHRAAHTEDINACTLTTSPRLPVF
IC50 [2] [µM],IC50 [4] [µM],IC50 [7] [µM],IC50 [9] [µM],IC50 [13] [µM],SMILES,also measured
≤ 10,≤ 10,≤ 10,≤ 10,–,COc1ccc(C(=O)c2c[nH]c3ncccc23)c(Cl)c1 [Compound P-0152],IC50 [1]: ≤ 10 µM; IC50 [3]: ≤ 10 µM; IC50 [5]: ≤ 10 µM; IC50 [6]: ≤ 10 µM; IC50 [8]: ≤ 10 µM; IC50 [10]: ≤ 10 µM; IC50 [11]: ≤ 10 µM
–,–,–,≤ 10,≤ 10,Cc1ccccc1C(=O)c1c[nH]c2nccc(-c3cccc(/C=C/C(=O)O)c3)c12 [Compound P-0094],IC50 [12]: ≤ 10 µM; IC50 [5]: ≤ 10 µM
–,–,–,–,≤ 10,Nc1cccc(-c2c(CN3CCC(C(=O)O)CC3)[nH]c3ncccc23)c1 [Compound P-0462],–
≤ 10,≤ 10,≤ 10,–,≤ 10,"CC(=O)Nc1ccc(F)c(C(=O)c2c[nH]c3ncc(-c4cccnc4)cc23)c1F [Compound P-1002, N-[2,4-Difluoro-3-(5-pyridin-3-yl-1H-pyrrolo[2,3-b]pyridine-3-carbonyl)-phenyl]-acetamide]",IC50 [1]: ≤ 10 µM; IC50 [14]: ≤ 10 µM; IC50 [15]: ≤ 10 µM; IC50 [16]: ≤ 10 µM; IC50 [17]: ≤ 10 µM; IC50 [18]: ≤ 10 µM; IC50 [19]: ≤ 10 µM
–,≤ 10,≤ 10,≤ 10,–,COc1cccc(C(=O)c2c[nH]c3ncc(-c4cccnc4)cc23)c1 [Compound P-0167],IC50 [10]: ≤ 10 µM; IC50 [11]: ≤ 10 µM; IC50 [20]: ≤ 10 µM; IC50 [21]: ≤ 10 µM
–,–,–,–,≤ 10,Cc1cc(C)cc(-c2ccnc3[nH]cc(Sc4ccccn4)c23)c1 [Compound P-0273],–
–,–,≤ 10,–,–,COc1cccc(C(=O)c2c[nH]c3nccc(Cl)c23)c1 [Compound P-0149],IC50 [22]: ≤ 10 µM; IC50 [10]: ≤ 10 µM; IC50 [11]: ≤ 10 µM
≤ 10,≤ 10,≤ 10,–,≤ 10,"Cc1c(NS(C)(=O)=O)cccc1C(=O)c1c[nH]c2ncc(Br)cc12 [Compound P-0180, N-[3-(5-Bromo-1H-pyrrolo[2,3-b]pyridine-3-carbonyl)-2-methyl-phenyl]-methanesulfonamide]",IC50 [1]: ≤ 10 µM; IC50 [23]: ≤ 10 µM; IC50 [11]: ≤ 10 µM; IC50 [18]: ≤ 10 µM; IC50 [19]: ≤ 10 µM
–,–,–,≤ 10,≤ 10,Cc1cc(C)cc(-c2ccnc3[nH]ccc23)c1 [Compound P-0159],–
–,–,–,–,≤ 10,O=[N+]([O-])c1cccc(Sc2c[nH]c3nccc(-c4cccc(C(F)(F)F)c4)c23)c1 [Compound P-0969],–
–,–,–,–,≤ 10,Cc1ccc(-c2c(C)[nH]c3ncccc23)s1 [Compound P-0207],IC50 [12]: ≤ 10 µM
≤ 10,≤ 10,≤ 10,≤ 10,≤ 10,NC(=O)c1cccc(-c2ccnc3[nH]cc(C(=O)c4ccccc4F)c23)c1 [Compound P-1181],IC50 [3]: ≤ 10 µM; IC50 [19]: ≤ 10 µM
–,–,–,≤ 10,≤ 10,CS(=O)(=O)Nc1cccc(-c2ccnc3[nH]cc(C(=O)c4ccccc4F)c23)c1 [Compound P-0236],–
≤ 10,–,–,–,≤ 10,Cc1cc(C)cc(-c2ccnc3[nH]cc(Sc4ccccc4)c23)c1 [Compound P-0252],–
–,–,≤ 10,–,≤ 10,CC(C)(C)OC(=O)Nc1ccc(F)c(C(=O)c2c[nH]c3ncc(Br)cc23)c1F [Compound P-1142],–
